We go through 14 compounds from patent US9938261B2, “Heterocyclic compounds and methods of use thereof” (AMBIT BIOSCIENCES CORPORATION, priority 2011, dated 2018).

One assay deals with T1, KIT (Homo sapiens, UniProt P10721).
T1 construct: made in house
The assay can be described thus: Competition binding assay, KIT Kd. A digest of the protocol:
(§1)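 Read-out is quantitative PCR of kinase recovered from affinity beads after competition with test compound. Binding reached equilibrium over 1 hour at room temperature; Kd values come from eleven-point threefold serial dilutions.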

In assay [1] the target is kinase panel containing either 386 or 392 distinct kinases. Description: Kinase selectivity score S10 from competition binding panel. A digest of the protocol: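 Compounds at 10 μM competed against immobilised affinity ligands for T7 phage-fused or HEK-293-expressed DNA-tagged kinases, 1 h at room temperature; bound kinase eluted and quantified by qPCR. S10 = fraction of distinct non-mutant kinases with percent of DMSO control below 10.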

Another assay deals with T2, PDGFRβ (Homo sapiens, UniProt P09619).
T2 construct: made in house
The assay can be described thus: Competition binding assay, PDGFRβ Kd. A digest of the protocol: as §1

In the next assay the test system is M-NFS-60 cells. Description: M-NFS-60 cell proliferation assay (Alamar Blue). Type of assay: cell-based, mouse. Conditions: read-out: CSF1R M-NFS-60 CTB:IC50. A digest of the protocol: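 Mouse M-NFS-60 cells growing on 20 ng/mL M-CSF in RPMI/10% FBS were exposed to compounds (9 half-log concentrations, 0.5% DMSO) for 72 h at 37 °C. Viability read by Alamar Blue fluorescence (ex 560/em 590 nm, 3 h). IC50 = 50% proliferation inhibition versus control, mean of duplicates.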
On the technique in general: The colour change of resazurin is a common sign of viable cells or microbes.

The target in another assay is CSF1R (Homo sapiens, UniProt P07333). Description: Competition binding assay, CSF1R Kd. Also on record: made in house. The method in brief: as §1
[2] abbreviates: 10 μM, panel of 386 or 392 distinct kinases.
The mark [3] stands for this setting: Mus musculus, M-NFS-60 cell proliferation.
Setting [4] is: compounds at 10 μM, 386 or 392 distinct kinases.
[5] abbreviates: 72 hours incubation, M-CSF 20 ng/mL.

Structures can show the parent of a compound that is named as a salt. Where two headings read alike, the source gives them in different places.

T2 sequence (P09619 33-1106): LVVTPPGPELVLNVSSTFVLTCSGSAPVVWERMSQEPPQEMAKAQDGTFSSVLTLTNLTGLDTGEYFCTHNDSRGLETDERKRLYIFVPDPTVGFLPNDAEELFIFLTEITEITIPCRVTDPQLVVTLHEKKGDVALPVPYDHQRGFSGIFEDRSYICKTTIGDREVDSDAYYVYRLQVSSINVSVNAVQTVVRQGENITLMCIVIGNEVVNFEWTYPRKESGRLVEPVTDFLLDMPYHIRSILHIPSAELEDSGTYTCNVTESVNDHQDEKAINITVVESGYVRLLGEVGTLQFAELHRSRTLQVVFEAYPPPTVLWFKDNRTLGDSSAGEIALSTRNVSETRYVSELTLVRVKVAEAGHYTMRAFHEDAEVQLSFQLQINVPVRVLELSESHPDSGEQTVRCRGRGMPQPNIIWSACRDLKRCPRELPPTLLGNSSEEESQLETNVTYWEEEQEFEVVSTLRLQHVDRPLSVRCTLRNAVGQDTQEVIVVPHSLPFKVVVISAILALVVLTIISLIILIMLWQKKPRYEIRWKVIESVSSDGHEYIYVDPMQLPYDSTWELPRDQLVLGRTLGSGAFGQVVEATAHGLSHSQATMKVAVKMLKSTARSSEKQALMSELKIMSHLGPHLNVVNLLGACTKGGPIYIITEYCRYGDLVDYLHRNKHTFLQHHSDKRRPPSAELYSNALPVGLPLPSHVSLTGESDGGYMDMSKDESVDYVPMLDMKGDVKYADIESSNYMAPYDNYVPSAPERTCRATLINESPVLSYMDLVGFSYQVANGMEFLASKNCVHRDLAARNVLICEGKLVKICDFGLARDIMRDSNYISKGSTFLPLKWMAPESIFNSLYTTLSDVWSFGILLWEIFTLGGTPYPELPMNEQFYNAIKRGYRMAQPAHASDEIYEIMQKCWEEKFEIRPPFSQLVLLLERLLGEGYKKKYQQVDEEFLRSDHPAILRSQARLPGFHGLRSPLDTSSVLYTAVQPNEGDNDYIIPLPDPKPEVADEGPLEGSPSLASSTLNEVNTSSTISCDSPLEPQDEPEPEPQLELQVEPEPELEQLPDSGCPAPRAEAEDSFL
T1 sequence (P10721 26-976): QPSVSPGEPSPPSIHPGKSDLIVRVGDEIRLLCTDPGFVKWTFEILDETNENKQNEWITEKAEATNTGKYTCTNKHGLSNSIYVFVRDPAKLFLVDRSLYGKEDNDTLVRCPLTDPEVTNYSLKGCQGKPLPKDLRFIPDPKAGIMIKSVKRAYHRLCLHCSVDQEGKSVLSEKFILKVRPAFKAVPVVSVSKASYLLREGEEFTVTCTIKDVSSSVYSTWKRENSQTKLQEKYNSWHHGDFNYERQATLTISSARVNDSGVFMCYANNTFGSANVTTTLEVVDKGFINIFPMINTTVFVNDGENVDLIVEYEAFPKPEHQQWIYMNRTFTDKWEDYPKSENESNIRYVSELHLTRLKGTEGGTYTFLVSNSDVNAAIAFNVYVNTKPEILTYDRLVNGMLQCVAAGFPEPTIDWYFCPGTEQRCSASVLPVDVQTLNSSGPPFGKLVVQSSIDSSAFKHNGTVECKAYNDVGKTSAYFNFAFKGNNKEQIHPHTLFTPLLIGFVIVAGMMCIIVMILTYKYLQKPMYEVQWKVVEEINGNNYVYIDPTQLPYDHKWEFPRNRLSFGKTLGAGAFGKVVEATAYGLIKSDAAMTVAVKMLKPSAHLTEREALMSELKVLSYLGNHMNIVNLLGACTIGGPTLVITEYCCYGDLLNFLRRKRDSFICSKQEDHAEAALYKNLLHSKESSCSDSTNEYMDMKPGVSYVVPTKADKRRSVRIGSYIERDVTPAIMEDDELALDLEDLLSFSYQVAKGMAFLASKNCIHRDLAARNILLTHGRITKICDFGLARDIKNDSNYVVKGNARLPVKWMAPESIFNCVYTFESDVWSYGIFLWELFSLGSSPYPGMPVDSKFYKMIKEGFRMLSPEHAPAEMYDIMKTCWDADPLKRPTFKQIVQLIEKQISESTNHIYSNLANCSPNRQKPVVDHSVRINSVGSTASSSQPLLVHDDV
CSF1R, sequence (P07333 20-972): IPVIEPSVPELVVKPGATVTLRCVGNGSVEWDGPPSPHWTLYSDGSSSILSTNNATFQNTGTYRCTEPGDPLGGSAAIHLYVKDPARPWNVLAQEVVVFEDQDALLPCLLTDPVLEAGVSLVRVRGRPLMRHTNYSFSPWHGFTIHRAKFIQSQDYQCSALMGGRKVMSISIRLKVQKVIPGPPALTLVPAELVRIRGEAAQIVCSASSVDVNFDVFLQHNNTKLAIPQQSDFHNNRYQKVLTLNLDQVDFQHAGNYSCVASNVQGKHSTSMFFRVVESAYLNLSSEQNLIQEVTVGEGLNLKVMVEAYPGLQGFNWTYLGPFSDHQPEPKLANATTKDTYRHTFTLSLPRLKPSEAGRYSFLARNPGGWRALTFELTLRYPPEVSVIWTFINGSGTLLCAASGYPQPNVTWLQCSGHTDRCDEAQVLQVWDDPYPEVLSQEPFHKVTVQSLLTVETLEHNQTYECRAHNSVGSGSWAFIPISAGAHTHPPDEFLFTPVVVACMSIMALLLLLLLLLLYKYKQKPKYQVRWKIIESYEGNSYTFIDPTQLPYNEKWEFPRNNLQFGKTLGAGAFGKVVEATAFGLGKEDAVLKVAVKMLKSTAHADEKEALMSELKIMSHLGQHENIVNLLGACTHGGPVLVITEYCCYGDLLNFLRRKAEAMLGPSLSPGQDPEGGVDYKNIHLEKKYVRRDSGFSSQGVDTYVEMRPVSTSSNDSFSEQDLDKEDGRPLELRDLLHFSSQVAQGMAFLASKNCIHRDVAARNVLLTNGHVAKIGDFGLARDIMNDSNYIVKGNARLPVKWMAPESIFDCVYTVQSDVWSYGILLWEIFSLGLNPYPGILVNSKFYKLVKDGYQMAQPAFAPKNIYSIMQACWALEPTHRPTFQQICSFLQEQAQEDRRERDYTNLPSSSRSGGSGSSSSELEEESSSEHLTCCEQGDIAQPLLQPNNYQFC

For `O[C@@H]1CCCC[C@H]1Nc1nc2ccc(Cn3cnc4cc(N5CCOCC5)ccc43)cc2s1` [Example 209, (1R,2R)-2-((6-((5-morpholino-1H-benzo[d]imidazol-1-yl)methyl)benzo[d]thiazol-2-yl)amino)cyclohexanol], the equilibrium dissociation constant (Kd) (as a rule, the concentration at which binding is half-saturated) at KIT (competition binding) fell in the range of 100 to 500 nM; at PDGFRβ (competition binding) it was 50 to 500 nM; at CSF1R (competition binding) it was 5 to 20 nM. The “Kinase specificity S(10)” value in assay [1] (setting [2]) is listed as “A (A≤0.01)”. For the same compound, in the assay with M-NFS-60 cells (setting [3]), the IC50 (as a rule, the concentration needed to halve the response being measured) lay in the range of 50 to 400 nM.
The corresponding values for `O=C1CCCCN1c1ccc2c(c1)ncn2Cc1ccc2nc(N[C@@H]3CCCC[C@H]3O)sc2c1` [Example 210, 1-(1-((2-(((1R,2R)-2-hydroxycyclohexyl)amino)benzo[d]thiazol-6-yl)methyl)-1H-benzo[d]imidazol-5-yl)piperidin-2-one] are 500 to 2000 nM, 500 to 2000 nM, 20 to 50 nM, “A (A≤0.01)” and greater than 1500 nM.
As to `O[C@@H]1CCCC[C@H]1Nc1nc2ccc(Cn3cnc4cc(-c5cc[nH]n5)ccc43)cc2s1` [Example 211, (1R,2R)-2-((6-((5-(1H-pyrazol-3-yl)-1H-benzo[d]imidazol-1-yl)methyl)benzo[d]thiazol-2-yl)amino)cyclohexanol], the results for the dissociation constant Kd on KIT (competition binding), at PDGFRβ (competition binding) and at CSF1R (competition binding) were no more than 100 nM, no more than 50 nM and no more than 5 nM, respectively. In assay [1] (setting [2]), the “Kinase specificity S(10)” value was “C (C>0.02)”. For the same compound, the IC50 in the assay with M-NFS-60 cells (setting [3]) was no more than 50 nM.
As for `O[C@@H]1CCCC[C@H]1Nc1nc2ccc(Cn3cnc4cc(C(F)(F)F)cnc43)cc2s1` [Example 212, (1R,2R)-2-((6-((6-(trifluoromethyl)-3H-imidazo[4,5-b]pyridin-3-yl)methyl)benzo[d]thiazol-2-yl)amino)cyclohexanol], the Kd is no more than 100 nM at KIT (competition binding), no more than 50 nM on PDGFRβ (competition binding) and 5 to 20 nM at CSF1R (competition binding). The “Kinase specificity S(10)” value in assay [1] (setting [2]) is given as “A (A≤0.01)”. For the same compound, the IC50 with M-NFS-60 cells (setting [3]) is 50 to 400 nM.
The corresponding values for `O[C@@H]1CCCC[C@H]1Nc1nc2ccc(Cc3cnc4cc(-n5ccnc5)ccn34)cc2s1` [Example 214, (1R,2R)-2-((6-((7-(1H-imidazol-1-yl)imidazo[1,2-a]pyridin-3-yl)methyl)benzo[d]thiazol-2-yl)amino)cyclohexanol] are 100 to 500 nM, 50 to 500 nM, no more than 5 nM, “B (0.01<B≤0.02)” and 50 to 400 nM.
In the same order, the values of `O[C@@H]1CCCC[C@H]1Nc1nc2ccc(Cc3cnc4cc(-n5nccn5)ccn34)cc2s1` [Example 215, (1R,2R)-2-((6-((7-(2H-1,2,3-triazol-2-yl)imidazo[1,2-a]pyridin-3-yl)methyl)benzo[d]thiazol-2-yl)amino)cyclohexanol] are 500 to 2000 nM, 500 to 2000 nM, 5 to 20 nM, “A (A≤0.01)” and 50 to 400 nM.
On to `C=Cc1ccn2c(Cc3ccc4nc(N[C@@H]5CCCC[C@H]5O)sc4c3)cnc2c1` [Example 216, (1R,2R)-2-((6-((7-vinylimidazo[1,2-a]pyridin-3-yl)methyl)benzo[d]thiazol-2-yl)amino)cyclohexanol], for which the Kd on KIT (competition binding) lay within 500 to 2000 nM; on PDGFRβ (competition binding), 50 to 500 nM; at CSF1R (competition binding), 5 to 20 nM. Further, the “Kinase specificity S(10)” value in assay [1] (setting [2]) is “A (A≤0.01)”. In the assay with M-NFS-60 cells (setting [3]), the IC50 was 50 to 400 nM.
In the same order, the values of `C=CCOc1ccn2c(Cc3ccc4nc(N[C@@H]5CCCC[C@H]5O)sc4c3)cnc2c1` [Example 217, (1R,2R)-2-((6-((7-(allyloxy)imidazo[1,2-a]pyridin-3-yl)methyl)benzo[d]thiazol-2-yl)amino)cyclohexanol] are 500 to 2000 nM, 50 to 500 nM, 5 to 20 nM, “A (A≤0.01)” and 50 to 400 nM.
On to `O[C@@H]1CCCC[C@H]1Nc1nc2ccc(Cc3cnc4cc(-n5ccnn5)ccn34)cc2s1` [Example 218, (1R,2R)-2-((6-((7-(1H-1,2,3-triazol-1-yl)imidazo[1,2-a]pyridin-3-yl)methyl)benzo[d]thiazol-2-yl)amino)cyclohexanol], for which the Kd on KIT (competition binding) is 500 to 2000 nM; at PDGFRβ (competition binding), 50 to 500 nM; on CSF1R (competition binding) it was 5 to 20 nM. Moreover, in assay [1] (setting [2]), the “Kinase specificity S(10)” value is listed as “A (A≤0.01)”. The IC50 in the assay on M-NFS-60 cells (setting [3]) was 50 to 400 nM.
In the same order, the values of `Fc1cnc2c(c1)ncn2Cc1ccc2nc(N[C@@H]3CCCC[C@@H]3Cl)sc2c1` [Example 219, N-((1R,2S)-2-chlorocyclohexyl)-6-((6-fluoro-3H-imidazo[4,5-b]pyridin-3-yl)methyl)benzo[d]thiazol-2-amine] are 100 to 500 nM, no more than 50 nM, 5 to 20 nM, “B (0.01<B≤0.02)” and 400 to 1500 nM.
In the same order, the values of `Nc1nccn(Cc2ccc3nc(N[C@@H]4CCCC[C@H]4O)sc3c2)c1=O` [Example 220, 3-amino-1-((2-(((1R,2R)-2-hydroxycyclohexyl)amino)benzo[d]thiazol-6-yl)methyl)pyrazin-2(1H)-one acetate salt] are greater than 2000 nM, 50 to 500 nM, 20 to 50 nM, “A (A≤0.01)” and greater than 1500 nM.
Take “either (1R,2R)-1-((6-((4-(1-methyl-1H-pyrazol-4-yl)-1H-imidazol-1-yl)methyl)benzo[d]thiazol-2-yl)amino)-2,3-dihydro-1H-inden-2-ol or (1R,2R)-1-((6-((5-(1-methyl-1H-pyrazol-4-yl)-1H-imidazol-1-yl)methyl)benzo[d]thiazol-2-yl)amino)-2,3-dihydro-1H-inden-2-ol [Example 83]”: the figures for the Kd on KIT, on PDGFRβ and at CSF1R were 500 to 2000 nM, 50 to 500 nM and no more than 5 nM, respectively. Further, in assay [1] (setting [4]), the “Kinase specificity S(10)” value is “A (A≤0.01)”. The IC50 in the assay with M-NFS-60 cells (setting [5]) is 50 to 400 nM.
The corresponding values for “either (1R,2R)-2-((6-((3H-imidazo[4,5-b]pyridin-3-yl)methyl)benzo[d]thiazol-2-yl)amino)-1-methylcyclohexanol or (1S,2R)-2-((6-((3H-imidazo[4,5-b]pyridin-3-yl)methyl)benzo[d]thiazol-2-yl)amino)-1-methylcyclohexanol [Example 60]” are 100 to 500 nM, no more than 50 nM, 5 to 20 nM, “B (0.01<B≤0.02)” and 50 to 400 nM.
In the same order, the values of “either (1S,2R)-2-((6-((3H-imidazo[4,5-b]pyridin-3-yl)methyl)benzo[d]thiazol-2-yl)amino)-1-methylcyclohexanol or (1R,2R)-2-((6-((3H-imidazo[4,5-b]pyridin-3-yl)methyl)benzo[d]thiazol-2-yl)amino)-1-methylcyclohexanol [Example 59]” are 100 to 500 nM, 50 to 500 nM, 5 to 20 nM, “C (C>0.02)” and 50 to 400 nM.
